These results are taken from patent US20240308973A1, “PHOSPHODIESTERASE 3 (PDE3) INHIBITORS” (Zoetis Services LLC, priority 2023, published 2024).

In data set [1] the target is dog PDE3A recombinant enzyme (Canis lupus familiaris, UniProt A0A8I3NYE0). Nature of the data set: cPDE3A assay (fluorescent polarization). It counts as biochemical. The conditions noted are these: canine PDE3A, read-out: cPDE3 Inhibition (IC50). The procedure:
cPDE3A Assay (Fluorescent Polarization)
The canine PDE3A assay kit was purchased from BPS Bioscience (San Diego, CA) which included dog PDE3A recombinant enzyme, FAM-cyclic-3′,5′-AMP (20 μM), PDE3 assay buffer, binding agent, binding agent diluent and microtiter 96-well plates. Compounds were initially dissolved in DMSO. The stock concentration was subsequently diluted in cPDE assay buffer (10× stock) and serially diluted to give a concentration response curve starting at 10 μM (≥7 total concentrations). Following the serial dilution, compound solution (0.1% final DMSO) was transferred to an assay plate (96-well) where the remaining canine PDE3A assay reagents were dispensed according to the BPS Bioscience® protocol (catalog #79735) procedure using a final concentration of 5 pg/μL of enzyme. Each compound was evaluated for the inhibition of the canine PDE3A enzyme activity using the measurement of fluorescent polarization changes. The 50% inhibition concentration (IC50) nM was calculated and reported.

Data set [2] in a line: Dog plasma half-life after oral dose. It counts as in vivo. The conditions noted are these: Beagle dogs, oral dose 0.1 mg/kg, plasma over 72 hours, read-out: t½ (hrs), Dog Plasma Compound Half-life (converted). The procedure:
Lastly, plasma half-life was assessed for a number of compounds in dogs. Beagle dogs were given an oral dose (0.1 mg/kg) of the respective compound accounting for a dose amount of about 1 mg/dog. Pimopendan was administered at a 0.3 mg/kg dose.

Chain of dog PDE3A recombinant enzyme (A0A8I3NYE0 1-1135): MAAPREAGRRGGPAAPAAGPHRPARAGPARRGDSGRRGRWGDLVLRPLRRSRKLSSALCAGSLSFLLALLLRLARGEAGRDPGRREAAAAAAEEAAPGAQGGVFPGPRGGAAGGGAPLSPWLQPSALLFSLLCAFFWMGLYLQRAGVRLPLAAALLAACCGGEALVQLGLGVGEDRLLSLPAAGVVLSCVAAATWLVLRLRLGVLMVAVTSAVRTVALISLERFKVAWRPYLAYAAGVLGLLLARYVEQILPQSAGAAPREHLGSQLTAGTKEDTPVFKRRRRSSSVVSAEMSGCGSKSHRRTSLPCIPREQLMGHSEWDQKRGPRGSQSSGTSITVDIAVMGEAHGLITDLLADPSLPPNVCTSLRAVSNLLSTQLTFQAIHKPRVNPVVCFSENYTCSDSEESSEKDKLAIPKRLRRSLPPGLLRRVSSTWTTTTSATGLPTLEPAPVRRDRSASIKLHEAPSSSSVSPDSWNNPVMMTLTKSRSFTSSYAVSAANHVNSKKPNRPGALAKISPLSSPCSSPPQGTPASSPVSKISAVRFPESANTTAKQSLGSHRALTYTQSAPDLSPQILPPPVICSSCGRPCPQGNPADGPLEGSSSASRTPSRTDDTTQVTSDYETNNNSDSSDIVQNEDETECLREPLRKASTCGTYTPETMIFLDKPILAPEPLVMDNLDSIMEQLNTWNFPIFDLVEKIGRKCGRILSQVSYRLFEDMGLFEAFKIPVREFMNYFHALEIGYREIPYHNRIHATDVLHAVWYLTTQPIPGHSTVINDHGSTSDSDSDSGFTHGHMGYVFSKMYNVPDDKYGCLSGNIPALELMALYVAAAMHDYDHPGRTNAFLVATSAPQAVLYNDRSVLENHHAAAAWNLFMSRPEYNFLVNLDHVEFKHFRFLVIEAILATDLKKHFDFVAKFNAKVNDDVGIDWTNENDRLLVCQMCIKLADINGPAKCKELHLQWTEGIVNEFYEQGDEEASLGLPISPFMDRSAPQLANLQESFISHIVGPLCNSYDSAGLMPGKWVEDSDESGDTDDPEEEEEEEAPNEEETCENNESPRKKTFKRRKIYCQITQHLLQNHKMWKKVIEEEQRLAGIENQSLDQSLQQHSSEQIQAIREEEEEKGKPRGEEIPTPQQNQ

Usually IC50 stands for the concentration that inhibits the measured activity by half. Usually half-life stands for the time needed for the level to fall by half in the phase considered. Regarding `CC1CC(=O)NN=C1c1cc(Cl)c2c(c1)C(C)(C)C(=O)N2` (racemic) [Example #24, 7-chloro-3,3-dimethyl-5-(4-methyl-6-oxo-1,4,5,6-tetrahydropyridazin-3-yl)indolin-2-one], the IC50 in data set [1] is 0.0054 µM. Besides, the half-life in data set [2] is 50 h.

For `CC1CC(=O)NN=C1c1cc2c(c(-c3cccc(F)c3)c1)NC(=O)CC2` (stereo not drawn) [Example #12, 8-(3-fluorophenyl)-6-(4-methyl-6-oxo-1,4,5,6-tetrahydropyridazin-3-yl)-3,4-dihydroquinolin-2 (1H)-one], the IC50 in data set [1] was 0.0909 µM. The half-life in data set [2] is 10.4 h.

Consider `COc1ccc(C2(c3nc4ccc(C5=NNC(=O)CC5C)cc4[nH]3)CC2)cc1` (stereo not drawn) [Example #19, 6-(2-(1-(4-methoxyphenyl)cyclopropyl)-1H-benzo[d]imidazol-6-yl)-5-methyl-4,5-dihydropyridazin-3 (2H)-one], for which the half-life in data set [2] is 16 h.

Take `CC1CC(=O)NN=C1c1cc(Br)c2c(c1)C(C)(C)C(=O)N2` (stereo not drawn) [Example #23, 7-bromo-3,3-dimethyl-5-(4-methyl-6-oxo-1,4,5,6-tetrahydropyridazin-3-yl)indolin-2-one]: the IC50 in data set [1] is 0.0091 µM. In addition, in data set [2], the half-life is 94 h.

In the case of `CC1(C)C(=O)Nc2c(Cl)cc(-c3ccc(=O)[nH]n3)cc21` [Example #25, 7-chloro-3,3-dimethyl-5-(6-oxo-1,6-dihydropyridazin-3-yl)indolin-2-one], in data set [1], the IC50 was 0.0157 µM. The half-life in data set [2] was 50 h.

`Cc1cc(C2=NNC(=O)SC2C)cc2sc(=O)[nH]c12` (stereo not drawn) [Example #55, 4-methyl-6-(6-methyl-2-oxo-3,6-dihydro-2H-1,3,4-thiadiazin-5-yl)benzo[d]thiazol-2 (3H)-one]: in data set [1], the IC50 amounted to 0.0038 µM. Besides, the half-life in data set [2] is 3.2 h.

Consider `CC1(C)C(=O)Nc2c(Cl)cc(C3=NNC(=O)SC3)cc21` [Example #61, 5-(7-chloro-3,3-dimethyl-2-oxoindolin-5-yl)-3,6-dihydro-2H-1,3,4-thiadiazin-2-one], for which the half-life in data set [2] was 8.5 h.

For `CC1SC(=O)NN=C1c1cc(Cl)c2c(c1)CC(=O)N2` (stereo not drawn) [Example #62, 5-(7-chloro-2-oxoindolin-5-yl)-6-methyl-3,6-dihydro-2H-1,3,4-thiadiazin-2-one], the half-life in data set [2] was 5 h.

Regarding `Cc1cc(C2=NNC(=O)CC2)cc2sc(=O)[nH]c12` [compound 15, 4-methyl-6-(6-oxo-1,4,5,6-tetrahydropyridazin-3-yl)benzo[d]thiazol-2 (3H)-one], the IC50 in data set [1] was determined as 0.0176 µM.

For `CC1CC(=O)NN=C1c1ccc2nc(Nc3ccc(S(C)(=O)=O)cc3)n(C3CC3)c2c1` (stereo not drawn) [compound 16, 6-(1-cyclopropyl-2-((4-(methylsulfonyl)phenyl)amino)-1H-benzo[d]imidazol-6-yl)-5-methyl-4,5-dihydropyridazin-3 (2H)-one], the IC50 in data set [1] was 0.005 µM.

Take `CC1CC(=O)NN=C1c1cc2c(c(-c3nccs3)c1)NC(=O)CCC2` (stereo not drawn) [compound 20, 7-(4-methyl-6-oxo-1,4,5,6-tetrahydropyridazin-3-yl)-9-(thiazol-2-yl)-1,3,4,5-tetrahydro-2H-benzo[b]azepin-2-one]: in data set [1], the half-maximal inhibitory concentration (IC50) was 0.0324 µM.

For `CC1CC(=O)NN=C1c1ccc2nc(Oc3ccc4ncsc4c3)[nH]c2c1` (stereo not drawn) [compound 22, 6-(2-(benzo[d]thiazol-6-yloxy)-1H-benzo[d]imidazol-6-yl)-5-methyl-4,5-dihydropyridazin-3 (2H)-one], the IC50 in data set [1] worked out at 0.0331 µM.

With `CC1CC(=O)NN=C1c1cc(Cl)c2[nH]c(=O)sc2c1` (stereo not drawn) [compound 29, 4-chloro-6-(4-methyl-6-oxo-1,4,5,6-tetrahydropyridazin-3-yl)benzo[d]thiazol-2 (3H)-one], in data set [1], the IC50 came out at 0.0032 µM.

With `CC1CC(=O)NN=C1c1cc(Br)c2nc(O)ccc2c1` (stereo not drawn) [compound 45, 6-(8-bromo-2-hydroxyquinolin-6-yl)-5-methyl-4,5-dihydropyridazin-3 (2H)-one], in data set [1], the IC50 is 0.0032 µM.

Turning to `CC1CC(=O)NN=C1c1cc(C2CC2)c2nc(O)ccc2c1` (stereo not drawn) [compound 48, 6-(8-cyclopropyl-2-hydroxyquinolin-6-yl)-5-methyl-4,5-dihydropyridazin-3 (2H)-one], the IC50 in data set [1] was determined as 0.018 µM.

Take `COC1CN(c2nc3ccc(C4=NNC(=O)CC4C)cc3s2)C1` (stereo not drawn) [compound 49, 6-(2-(3-methoxyazetidin-1-yl)benzo[d]thiazol-6-yl)-5-methyl-4,5-dihydropyridazin-3 (2H)-one]: the IC50 in data set [1] was determined as 0.0486 µM.

`O=c1ccc(-c2cc(Cl)c3[nH]c(=O)sc3c2)n[nH]1` [compound 52, 4-chloro-6-(6-oxo-1,6-dihydropyridazin-3-yl)benzo[d]thiazol-2 (3H)-one]: the IC50 in data set [1] is 0.0247 µM.

Take `CC1CC(=O)NN=C1c1cc(C#N)c2c(c1)CC(=O)N2` (stereo not drawn) [compound 53, 5-(4-methyl-6-oxo-1,4,5,6-tetrahydropyridazin-3-yl)-2-oxoindoline-7-carbonitrile]: in data set [1], the IC50 turned out to be 0.0327 µM.

With `C[C@@H]1CC(=O)NN=C1c1cc(F)c2c(c1)CC(=O)N2` [compound 54, (R)-7-fluoro-5-(4-methyl-6-oxo-1,4,5,6-tetrahydropyridazin-3-yl)indolin-2-one], in data set [1], the IC50 turned out to be 0.0074 µM.

For `Cc1cc(C2=NNC(=O)S[C@@H]2C)cc2ccc(O)nc12` [compound 60, (R)-5-(2-hydroxy-8-methylquinolin-6-yl)-6-methyl-3,6-dihydro-2H-1,3,4-thiadiazin-2-one], the IC50 in data set [1] came to 0.0047 µM.

On to `CC1SC(=O)NN=C1c1cc(Cl)c2c(c1)CCCC(=O)N2` (stereo not drawn) [compound 64, 5-(9-chloro-2-oxo-2,3,4,5-tetrahydro-1H-benzo[b]azepin-7-yl)-6-methyl-3,6-dihydro-2H-1,3,4-thiadiazin-2-one], for which the IC50 in data set [1] worked out at 0.0032 µM.

As to `CC1SC(=O)NN=C1c1cc(Br)c2c(c1)CC(=O)N2` (stereo not drawn) [compound 69, 5-(7-bromo-2-oxoindolin-5-yl)-6-methyl-3,6-dihydro-2H-1,3,4-thiadiazin-2-one], the IC50 in data set [1] was determined as 0.0109 µM.

With `CC1SC(=O)NN=C1c1cc2c(c(-c3ccccc3)c1)NC(=O)C2` (stereo not drawn) [compound 70, 6-methyl-5-(2-oxo-7-phenylindolin-5-yl)-3,6-dihydro-2H-1,3,4-thiadiazin-2-one], in data set [1], the IC50 came to 0.0807 µM.

With `CC1SC(=O)NN=C1c1cc(Cl)c2nc(O)ccc2c1` (stereo not drawn) [compound 81, 5-(8-chloro-2-hydroxyquinolin-6-yl)-6-methyl-3,6-dihydro-2H-1,3,4-thiadiazin-2-one], the IC50 in data set [1] was 0.0032 µM.

Take `CC1SC(=O)NN=C1c1cc(Cl)c2c(c1)CS(=O)(=O)N2` (stereo not drawn) [compound 82, 5-(7-chloro-2,2-dioxido-1,3-dihydrobenzo[c]isothiazol-5-yl)-6-methyl-3,6-dihydro-2H-1,3,4-thiadiazin-2-one]: the IC50 in data set [1] stood at 0.0264 µM.

On to `Cc1cc(C2=NNC(=O)SC2C)cc2c1NC(=O)CC2` (stereo not drawn) [compound 83, 6-methyl-5-(8-methyl-2-oxo-1,2,3,4-tetrahydroquinolin-6-yl)-3,6-dihydro-2H-1,3,4-thiadiazin-2-one], for which the IC50 in data set [1] came to 0.0032 µM.

Regarding `O=c1[nH]nc(-c2cc(Cl)c3[nH]c(=O)sc3c2)s1` [compound 88, 4-chloro-6-(5-oxo-4,5-dihydro-1,3,4-thiadiazol-2-yl)benzo[d]thiazol-2 (3H)-one], the IC50 in data set [1] amounted to 0.0292 µM.

As for `CC1(C)C(=O)Nc2c(Cl)cc(-c3n[nH]c(=O)s3)cc21` [compound 89, 5-(7-chloro-3,3-dimethyl-2-oxoindolin-5-yl)-1,3,4-thiadiazol-2 (3H)-one], the IC50 in data set [1] is 0.0253 µM.
